Test results reported in patent publication US12161616B2, “Combination therapy comprising an omega-3 fatty acid, a folate species and a vitamin B12 species” (Oxford University Innovation Limited, priority 2014, dated 2024).

Test system: brain atrophy rate in patients with a diagnosis of MCI
Experiment: VITACOG trial: whole brain atrophy per year from MRI scans (SIENA)
Assay type: in vivo, human
Settings: for BAR (brain atrophy rate): entire study group
Method: This study was conducted as a part of the VITACOG trial, ‘Homocysteine and B vitamins in cognitive impairment’, and was carried out according to the principles of the Declaration of Helsinki and received approval of the Oxfordshire NHS research ethics committee A (COREC 04/Q1604/100). All participants gave their written informed consent. The study protocol and participants, along with inclusion and exclusion criteria, have been described in detail elsewhere (Smith et al, PLOS One 2010; 5 (9); e12244.doi10.1371/journal.pone. 0012244). In short, 646 patients above 70 years of age with a diagnosis of MCI were assessed for eligibility. After randomization of eligible subjects, and some withdrawals, 133 started treatment with TrioBe Plus® (0.8 mg folic acid, 0.5 mg vitamin B12, and 20 mg vitamin B6, specifically 0.8 mg folic acid, 0.5 mg cyanocobalamin and 20 mg pyridoxine HCl) while 133 received placebo for a duration of 24 months. Participants were only included in this study if brain atrophy data was available.
The MRI protocol used in the VITACOG study has been described in detail elsewhere (Smith et al referenced above). In short, baseline and follow-up volumetric cranial MRI scans were carried out at the Oxford Centre for Clinical Magnetic Resonance Research using a 1.5 T MRI system (Sonata; Siemens Medical Solutions, Erlangen, Germany). Whole brain atrophy per year was estimated from MR images taken at baseline and follow-up, using the fully automated SIENA protocol which provides accuracy and robustness. Normalized brain volume at baseline was estimated from a single image using a cross-sectional method (SIENAX), and used as a covariate in the statistical analyses.
IBM SPSS for Windows, version 20, was used for all statistical analyses (IBM Corp., Armonk, NY, USA). Skewed fatty acids were normalized using their natural logarithms. Unless otherwise stated, fatty acid concentrations at baseline were used for statistical analyses. The main outcome in this study was to investigate the effect of B vitamin treatment on brain atrophy rates, based on baseline omega-3 fatty acid status. Analyses of variance, were used to further examine associations between the fatty acid variables and tHcy and brain atrophy. Two correction models were used. Model A was adjusted for age, sex, and initial brain volume, while model B also adjusted for plasma tHcy, ApoE status, education level, and baseline levels of diastolic blood pressure, triglyceride concentration, and creatinine concentration. When the entire study population was included in the analysis, tHcy measured at follow-up was used as covariate since this measure most likely represents the average tHcy during the trial. When the analysis was confined to the placebo group, tHcy at baseline was used.
Differences between atrophy rate in the placebo and B vitamin groups were assessed using Student's t test, while brain atrophy rates according to different levels of fatty acids (tertiles), were analyzed using ANCOVA. Where an ANCOVA indicated significant differences between tertiles, Bonferroni corrected post hoc comparisons were made between the lowest and the two higher tertiles. […] P<0.05 was considered statistically significant in all analyses.

[1] = HIGH tHcy at follow-up, middle baseline tertile, Model A
[2] = HIGH tHcy at follow-up, middle baseline tertile, Model B
[3] = HIGH tHcy at follow-up, top baseline tertile, Model A
[4] = HIGH tHcy at follow-up, top baseline tertile, Model B
[5] = LOW tHcy at follow-up, middle baseline tertile, Model A
[6] = LOW tHcy at follow-up, middle baseline tertile, Model B
[7] = LOW tHcy at follow-up, top baseline tertile, Model A
[8] = LOW tHcy at follow-up, top baseline tertile, Model B
[9] = HIGH tHcy at follow-up, lowest baseline tertile (DHA <245 μM, EPA <136 μM), Model A
[10] = HIGH tHcy at follow-up, lowest baseline tertile (DHA <245 μM, EPA <136 μM), Model B
[11] = HIGH tHcy at follow-up, middle baseline tertile (DHA 245-345 μM, EPA 136-222 μM), Model A
[12] = HIGH tHcy at follow-up, middle baseline tertile (DHA 245-345 μM, EPA 136-222 μM), Model B
[13] = HIGH tHcy at follow-up, top baseline tertile (DHA >345 μM, EPA >222 μM), Model A
[14] = HIGH tHcy at follow-up, top baseline tertile (DHA >345 μM, EPA >222 μM), Model B
[15] = LOW tHcy at follow-up, lowest baseline tertile (DHA <245 μM, EPA <136 μM), Model A
[16] = LOW tHcy at follow-up, lowest baseline tertile (DHA <245 μM, EPA <136 μM), Model B
[17] = LOW tHcy at follow-up, middle baseline tertile (DHA 245-345 μM, EPA 136-222 μM), Model A
[18] = LOW tHcy at follow-up, middle baseline tertile (DHA 245-345 μM, EPA 136-222 μM), Model B
[19] = LOW tHcy at follow-up, top baseline tertile (DHA >345 μM, EPA >222 μM), Model A
[20] = LOW tHcy at follow-up, top baseline tertile (DHA >345 μM, EPA >222 μM), Model B

| SMILES | Percent change of BAR compared to the lowest fatty acid tertile [1] | Percent change of BAR compared to the lowest fatty acid tertile [2] | Percent change of BAR compared to the lowest fatty acid tertile [3] | Percent change of BAR compared to the lowest fatty acid tertile [4] | Percent change of BAR compared to the lowest fatty acid tertile [5] | Percent change of BAR compared to the lowest fatty acid tertile [6] | Percent change of BAR compared to the lowest fatty acid tertile [7] | Percent change of BAR compared to the lowest fatty acid tertile [8] | BAR (brain atrophy rate) [9] | BAR (brain atrophy rate) [10] | BAR (brain atrophy rate) [11] | BAR (brain atrophy rate) [12] | BAR (brain atrophy rate) [13] | BAR (brain atrophy rate) [14] | BAR (brain atrophy rate) [15] | BAR (brain atrophy rate) [16] | BAR (brain atrophy rate) [17] | BAR (brain atrophy rate) [18] | BAR (brain atrophy rate) [19] | BAR (brain atrophy rate) [20] |
| --- | --- | --- | --- | --- | --- | --- | --- | --- | --- | --- | --- | --- | --- | --- | --- | --- | --- | --- | --- | --- |
| CC/C=C\C/C=C\C/C=C\C/C=C\C/C=C\CCCC(=O)O [20:5n-3 (EPA), Eicosapentaenoic acid] | 18% | 11% | 9.5% | 4.3% | −30% | −27% | −33% | −40% | 1.02 percent brain whole brain reduction per year | 0.98 percent brain whole brain reduction per year | 1.19 percent brain whole brain reduction per year | 1.20 percent brain whole brain reduction per year | 1.11 percent brain whole brain reduction per year | 1.13 percent brain whole brain reduction per year | 1.07 percent brain whole brain reduction per year | 1.14 percent brain whole brain reduction per year | 0.73 percent brain whole brain reduction per year | 0.76 percent brain whole brain reduction per year | 0.69 percent brain whole brain reduction per year | 0.63 percent brain whole brain reduction per year |
| CC/C=C\C/C=C\C/C=C\C/C=C\C/C=C\C/C=C\CCC(=O)O [22:6n-3 (DHA), Docosahexaenoic acid] | 7.7% | 5.7% | 8.6% | 0.4% | −34% | −36% | −37% | −43% | 1.08 percent brain whole brain reduction per year | 1.06 percent brain whole brain reduction per year | 1.12 percent brain whole brain reduction per year | 1.14 percent brain whole brain reduction per year | 1.13 percent brain whole brain reduction per year | 1.08 percent brain whole brain reduction per year | 1.09 percent brain whole brain reduction per year | 1.20 percent brain whole brain reduction per year | 0.71 percent brain whole brain reduction per year | 0.70 percent brain whole brain reduction per year | 0.68 percent brain whole brain reduction per year | 0.62 percent brain whole brain reduction per year |
